Experimental data: paper PMC4743925, “Targeting an Essential GTPase Obg for the Development of Broad-Spectrum Antibiotics” (PLoS ONE, 2016)

Tests used:
ObgGC = target: T1, ObgGC (Neisseria gonorrhoeae, UniProt Q5F5D9); assay: mant-nucleotide fluorescence increase; type: binding; conditions: 2 μM protein, labelled compound
T1 construct: gene obg; full-length with C-terminal 6xHis tag, expressed in E. coli BL21(DE3), IMAC and size exclusion; tag not reported cut

ObgKP = target: T2, ObgKP (Klebsiella pneumoniae, UniProt A6TEK2); assay: mant-nucleotide fluorescence increase; type: binding; conditions: 2 μM protein, labelled compound
T2 construct: gene obg; residues 1-392, N-terminal 6xHis tag and TEV site (modified pCDF-Duet1, pKV1414), expressed in E. coli BL21(DE3); tag not reported cut

[1] = 0.3 μM mant-GTP, 5 mM MgCl2, 37 °C

T2 sequence (A6TEK2 whole entry, the tested form may be a part): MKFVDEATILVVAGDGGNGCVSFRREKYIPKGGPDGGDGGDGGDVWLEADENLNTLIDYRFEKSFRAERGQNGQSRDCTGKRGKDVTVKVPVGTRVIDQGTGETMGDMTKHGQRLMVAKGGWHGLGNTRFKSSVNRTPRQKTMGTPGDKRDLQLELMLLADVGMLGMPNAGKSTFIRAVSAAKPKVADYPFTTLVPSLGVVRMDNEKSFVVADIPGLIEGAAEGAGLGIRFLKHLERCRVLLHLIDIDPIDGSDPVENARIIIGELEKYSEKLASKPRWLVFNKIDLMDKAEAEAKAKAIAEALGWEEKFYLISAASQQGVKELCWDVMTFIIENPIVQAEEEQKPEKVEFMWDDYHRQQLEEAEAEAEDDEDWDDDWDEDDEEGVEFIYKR
T1 sequence (Q5F5D9 whole entry): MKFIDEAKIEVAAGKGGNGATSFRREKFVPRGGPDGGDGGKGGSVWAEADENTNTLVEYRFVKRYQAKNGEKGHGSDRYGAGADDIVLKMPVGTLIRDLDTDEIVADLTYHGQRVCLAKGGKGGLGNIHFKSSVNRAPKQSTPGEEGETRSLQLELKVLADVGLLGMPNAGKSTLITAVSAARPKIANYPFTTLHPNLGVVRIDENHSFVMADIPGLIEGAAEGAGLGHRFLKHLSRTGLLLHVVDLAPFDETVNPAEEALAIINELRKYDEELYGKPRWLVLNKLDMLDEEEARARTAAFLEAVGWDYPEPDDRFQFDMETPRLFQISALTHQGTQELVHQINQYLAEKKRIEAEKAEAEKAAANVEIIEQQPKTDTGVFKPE

Structure (SMILES)	increase in RFU (ObgGC; [1])	fold increase in RFU (ObgKP; [1])	increase in RFU (ObgGC; 0.3 μM mant-GDP, no MgCl2, 37 °C)	fold increase in RFU (ObgKP; 0.3 μM mant-GDP, 37 °C)
CNc1ccccc1C(=O)O[C@H]1[C@@H](O)[C@H](n2cnc3c(=O)[nH]c(N)nc32)O[C@@H]1COP(=O)(O)OP(=O)(O)OP(=O)(O)O [mant-GTP]	Assessment of mant-nucleotides binding by wild type (ObgGC) and mutated (*ObgGC)	~ 1.8 fold	–	–
CNc1ccccc1C(=O)O[C@H]1[C@@H](O)[C@H](n2cnc3c(=O)[nH]c(N)nc32)O[C@@H]1COP(=O)(O)OP(=O)(O)O [mant-GDP]	–	–	Assessment of mant-nucleotides binding by wild type (ObgGC) and mutated (*ObgGC)	~ 1.3 fold
